Test results as given in PubChem BioAssay AID248 (DTP/NCI, 2004).
Toxic doses and inconclusive results are not listed. Cut-off read from the data, not from the text of the source: active = T/C of 150% or more; inactive = T/C below 125%.

Test system: L1210 leukemia ip in BDF1 mice, survival T/C
Assay: NCI In Vivo Anticancer Drug Screen. Data for tumor model L1210 Leukemia (intraperitoneal) in B6D2F1 (BDF1) mice
Settings: endpoint: mean survival time, higher = longer survival
In short: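 Ratio derived from survival: compound-dosed mice over vehicle-dosed mice, all bearing a transplantable tumor.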

[1] = dose: 100.0 mg/kg/injection, schedule: Q01DX009 (ip), vehicle: Klucel (hydroxypropylcellulose) (HPC)
[2] = dose: 200.0 mg/kg/injection, schedule: Q01DX009 (ip), vehicle: Klucel (hydroxypropylcellulose) (HPC)
[3] = dose: 100.0 mg/kg/injection, schedule: Q01DX001 (ip), vehicle: Klucel (hydroxypropylcellulose) (HPC)
[4] = dose: 200.0 mg/kg/injection, schedule: Q01DX001 (ip), vehicle: Klucel (hydroxypropylcellulose) (HPC)
[5] = dose: 400.0 mg/kg/injection, schedule: Q01DX001 (ip), vehicle: Klucel (hydroxypropylcellulose) (HPC)
[6] = dose: 400.0 mg/kg/injection, schedule: Q01DX009 (ip), vehicle: Klucel (hydroxypropylcellulose) (HPC)
[7] = dose: 100.0 mg/kg/injection, schedule: Q04DX003 (ip), vehicle: Klucel (hydroxypropylcellulose) (HPC)
[8] = dose: 200.0 mg/kg/injection, schedule: Q04DX003 (ip), vehicle: Klucel (hydroxypropylcellulose) (HPC)
[9] = dose: 400.0 mg/kg/injection, schedule: Q04DX003 (ip), vehicle: Klucel (hydroxypropylcellulose) (HPC)
[10] = dose: 100.0 mg/kg/injection, schedule: Q01DX001 (ip), vehicle: saline
[11] = dose: 200.0 mg/kg/injection, schedule: Q01DX001 (ip), vehicle: saline
[12] = dose: 400.0 mg/kg/injection, schedule: Q01DX001 (ip), vehicle: saline
[13] = dose: 100.0 mg/kg/injection, schedule: Q04DX003 (ip), vehicle: saline with Tween-80
[14] = dose: 200.0 mg/kg/injection, schedule: Q04DX003 (ip), vehicle: saline with Tween-80
[15] = dose: 400.0 mg/kg/injection, schedule: Q04DX003 (ip), vehicle: saline with Tween-80
[16] = dose: 100.0 mg/kg/injection, schedule: Q04DX003 (ip), vehicle: saline
[17] = dose: 200.0 mg/kg/injection, schedule: Q04DX003 (ip), vehicle: saline
[18] = dose: 100.0 mg/kg/injection, schedule: Q01DX001 (ip), vehicle: carboxymethylcellulose (CMC)
[19] = dose: 200.0 mg/kg/injection, schedule: Q01DX001 (ip), vehicle: carboxymethylcellulose (CMC)
[20] = dose: 100.0 mg/kg/injection, schedule: Q01DX001 (ip), vehicle: saline with Tween-80
[21] = dose: 200.0 mg/kg/injection, schedule: Q01DX001 (ip), vehicle: saline with Tween-80
[22] = dose: 400.0 mg/kg/injection, schedule: Q01DX001 (ip), vehicle: saline with Tween-80

Measured: T/C

O=C(Nc1ccc([N+](=O)[O-])cc1)OCC#CC#CCOC(=O)Nc1ccc([N+](=O)[O-])cc1
inactive: dose: 50.0 mg/kg/injection, schedule: Q01DX009 (ip), vehicle: Klucel (hydroxypropylcellulose) (HPC) 104 % of control | [1] 100 % of control | [2] 86 % of control

O=C(CCCCCCCCC(=O)c1ccc2ccccc2c1O)c1ccc2ccccc2c1O
inactive: [3] 87 % of control | [1] 94 % of control | [4] 89 % of control | [2] 91 % of control | [5] 105 % of control | [6] 96 % of control

CC(C)(C)c1ccc(-c2nnc(-c3ccc(-c4ccccc4)cc3)o2)cc1
inactive: [7] 95 % of control | [8] 92 % of control | [9] 90 % of control

OC(COc1cccc2ccccc12)CN1CCN(c2ccc(Cl)cc2)CC1 (configuration not stated)
inactive: [10] 98 % of control | [11] 101 % of control | [12] 97 % of control

C[N+](C)(CC(=O)Nc1ccc(Cl)c(C(F)(F)F)c1)CC(=O)c1ccc(Cl)c(Cl)c1
inactive: dose: 100.0 mg/kg/injection, schedule: Q04DX003 (ip), vehicle: saline sonified 97 % of control | dose: 200.0 mg/kg/injection, schedule: Q04DX003 (ip), vehicle: saline sonified 111 % of control | dose: 400.0 mg/kg/injection, schedule: Q04DX003 (ip), vehicle: saline sonified 100 % of control

CC(=O)C1=C(c2ccc([N+](=O)[O-])cc2)NC(=O)NC1c1ccco1 (configuration not stated)
inactive: [13] 98 % of control | [14] 93 % of control | [15] 100 % of control

Cc1ncc2c[n+]([O-])ccn12
inactive: [16] 97 % of control | [17] 98 % of control

CCOC(=O)CCc1c(C)c2ccc(O)cc2oc1=O
inactive: [10] 98 % of control | [11] 104 % of control | [12] 94 % of control

CCCCn1c(Cl)c(C(=O)O)c2ccccc21
inactive: dose: 50.0 mg/kg/injection, schedule: Q04DX003 (ip), vehicle: Klucel (hydroxypropylcellulose) (HPC) 94 % of control | [7] 91 % of control | [8] 90 % of control

CN(CCO)c1c(Cl)c(=O)oc2ccc(Cl)cc12
inactive: [13] 90 % of control | [14] 92 % of control | [15] 89 % of control

Cc1cc(O)c(C)c2c1CC[C@H]1[C@@H]2OC(=O)[C@@H]1C
inactive: dose: 100.0 mg/kg/injection, schedule: Q01DX001 (ip), vehicle: other 98 % of control | dose: 200.0 mg/kg/injection, schedule: Q01DX001 (ip), vehicle: other 92 % of control | dose: 400.0 mg/kg/injection, schedule: Q01DX001 (ip), vehicle: other 97 % of control

Cc1ccc(Br)c([N+](=O)[O-])c1
inactive: dose: 22.2 mg/kg/injection, schedule: Q01DX001 (ip), vehicle: carboxymethylcellulose (CMC) 93 % of control | dose: 33.35 mg/kg/injection, schedule: Q01DX001 (ip), vehicle: carboxymethylcellulose (CMC) 93 % of control | dose: 50.0 mg/kg/injection, schedule: Q01DX001 (ip), vehicle: carboxymethylcellulose (CMC) 93 % of control | dose: 75.0 mg/kg/injection, schedule: Q01DX001 (ip), vehicle: carboxymethylcellulose (CMC) 110 % of control | [18] 109 % of control | [19] 115 % of control | dose: 400.0 mg/kg/injection, schedule: Q01DX001 (ip), vehicle: carboxymethylcellulose (CMC) 107 % of control

C=CCNC(=S)Nc1ccc(O)cc1
inactive: [1] 91 % of control | [2] 97 % of control | [6] 96 % of control

Nc1ccn(CCCOc2ccccc2)c(=O)n1
inactive: [20] 97 % of control | [21] 96 % of control | [22] 100 % of control

CC1(CCCOc2ccc(N)cc2)N=C(N)N=C(N)N1c1ccccc1 (configuration not stated)
inactive: dose: 5.0 mg/kg/injection, schedule: Q01DX001 (ip), vehicle: saline 96 % of control | dose: 10.0 mg/kg/injection, schedule: Q01DX001 (ip), vehicle: saline 96 % of control | dose: 20.0 mg/kg/injection, schedule: Q01DX001 (ip), vehicle: saline 92 % of control | dose: 40.0 mg/kg/injection, schedule: Q01DX001 (ip), vehicle: saline 92 % of control | dose: 80.0 mg/kg/injection, schedule: Q01DX001 (ip), vehicle: saline 90 % of control

N#Cc1cccc(-c2nc3ncnc(N)c3[nH]2)c1
inactive: [7] 94 % of control | [8] 96 % of control | [9] 92 % of control

S=C([S-])N(Cc1ccccc1)Cc1ccccc1.S=C([S-])N(Cc1ccccc1)Cc1ccccc1.[Zn]
inactive: dose: 50.0 mg/kg/injection, schedule: Q01DX009 (ip), vehicle: saline 104 % of control | dose: 100.0 mg/kg/injection, schedule: Q01DX009 (ip), vehicle: saline 102 % of control | [16] 94 % of control | dose: 200.0 mg/kg/injection, schedule: Q01DX009 (ip), vehicle: saline 104 % of control | [17] 97 % of control | dose: 400.0 mg/kg/injection, schedule: Q04DX003 (ip), vehicle: saline 89 % of control

CNC(=O)CCC(NS(=O)(=O)c1ccc(C)cc1)C(=O)OC (configuration not stated)
inactive: [20] 100 % of control | [21] 94 % of control | [22] 97 % of control

Cc1ccc(S(=O)(=O)N/N=c2\cc(C)c3ccccc3n2C)cc1
inactive: dose: 100.0 mg/kg/injection, schedule: Q04DX003 (ip), vehicle: gum acacia 95 % of control | dose: 200.0 mg/kg/injection, schedule: Q04DX003 (ip), vehicle: gum acacia 94 % of control | dose: 400.0 mg/kg/injection, schedule: Q04DX003 (ip), vehicle: gum acacia 93 % of control

CCC[CH2][Sn]1([CH2]CCC)[O]OC(C)(CC)[O]1 (configuration not stated)
inactive: dose: 6.25 mg/kg/injection, schedule: Q01DX009 (ip), vehicle: saline sonified 108 % of control

O=C(Cc1cccc([N+](=O)[O-])c1)Nc1ccc(S(=O)(=O)F)cc1
inactive: [10] 112 % of control | [11] 111 % of control | [12] 110 % of control

CCOc1cc(N)nc(N)c1[N+](=O)[O-]
inactive: [18] 95 % of control | [19] 87 % of control

CCCCCCCCCCCCCSCCCCCCSCCCCCCCCCCCCC
inactive: [3] 89 % of control | [4] 96 % of control | [5] 98 % of control

Cc1cccc(C)c1NC(=O)Oc1ccc2ccccc2c1
inactive: [1] 91 % of control | [7] 104 % of control | [2] 94 % of control | [8] 104 % of control | [6] 101 % of control | [9] 105 % of control

CCOC1(OCC)C([N+](=O)[O-])=CC(=[N+]([O-])O)C=C1[N+](=O)[O-]
inactive: dose: 50.0 mg/kg/injection, schedule: Q01DX001 (ip), vehicle: saline 102 % of control | [10] 98 % of control | [11] 98 % of control | [12] 101 % of control
